Assay results taken from patent US8633005B2, “Isocyclomaltooligosaccharide(s), isocyclomaltooligosaccharide-forming enzyme, their preparation and uses” (Hayashibara Co., Ltd., priority 2004, dated 2014).
Read-outs that look alike come from different tables or passages of the source.

How the values were obtained:
[1] = Amino-carbonyl reaction with glycine; type: physicochemical; conditions: 5% (w/v) saccharide + 1% (w/v) glycine, pH 7.0, 120° C., blank subtracted
Procedure: ICG5, used in Experiment 15 and commercially available super high-grade glycine were dissolved in deionized water, and then admixed with phosphate buffer to make into an aqueous ICG5 solution containing 5% (w/v) of ICG5 and 1% (w/v) glycine, adjusted to pH 7.0. As a control, an aqueous α-cyclodextrin (α-CD) solution containing α-CD and glycine was prepared in the same manner using α-CD in place of ICG5. Four milliliters each of the solution was put in a glass tube, sealed and then heated at 120° C. for 30, 60, or 90 min. After cooling the solutions in ambient temperature, the degrees of coloring of the solutions were measured to estimate the degree of amino-carbonyl reaction. As a blank test, a solution containing glycine only was heated in the same manner. The degree of coloring was defined as an absorbance at 480 nm using a 1 cm-cell after subtracting the absorbance of the blank test.

[2] = Amino-carbonyl reaction with polypeptone; type: physicochemical; conditions: with 5% (w/v) polypeptone, 120° C., blank subtracted
Procedure: ICG5 used in Experiment 15 and commercially available polypeptone, commercialized by Nihon Pharmaceutical Co., Ltd., Tokyo, Japan, were dissolved in deionized water to make into an aqueous solution containing […] and 5% (w/v) of polypeptone. As a control, an aqueous solution containing α-CD and polypeptone was prepared in the same manner using α-CD in place of ICG5. Four milliliters each of the solution was put in a glass tube, sealed and then heated at 120° C. for 30, 60, or 90 min. After cooling the solutions in ambient temperature, the degrees of coloring of the solutions were measured to estimate the degree of amino-carbonyl reaction. As a blank test, a solution containing polypeptone only was heated in the same manner. The degree of coloring was defined as an absorbance at 480 nm using a 1 cm-cell after subtracting the absorbance of the blank test.

[3] = Clathrating action of ICM (amount of compound clathrated, gas-chromatography); type: physicochemical; conditions: 3-folds molar amount
Procedure: ICG5 used in Experiment 15, was dissolved in deionized water to make into an aqueous solution containing 20% (w/v) of ICG5. Twenty milliliters of the aqueous solution was admixed with 3-folds amount, on a molar basis to ICG5, of either of four kinds of short chain alcohols, i.e., methanol, ethanol, propanol, and butanol; four kinds of short chain fatty acids, i.e., acetic acid, propionic acid, n-butyric acid, and n-valeic acid; and four kinds of aromatic compounds, i.e., benzyl alcohol, phenethyl alcohol, 4-phenyl-1-propanol, and o-cresol; and then stirred the mixture to homogeneity for allowing ICG5 to clathrate the compound. Successively, each solution was filtrated, and the resulting filtrate was freeze-dried to remove unclathrated compound. In order to measure the amount of compound clathrated in the freeze-dried product, the amount of each compound in each freeze-dried product was determined by gas-chromatography. Alpha-CD was used as a control and subjected to the similar test.

ICM-forming enzyme = assay: Action on various saccharides (substrate specificity, TLC); type: biochemical, Bacillus circulans AM7; design: key: −: Not changed; +: Spot of substrate is slightly decreased and the formation of ICM are detected; ++: Spot of substrate is markedly decreased and the formation of ICM are detected; +++: Spot of substrate is virtually disappeared and the formation of ICM are detected; conditions: substrate 2% (w/v), one unit/g-substrate enzyme, 40° C., pH 6.0, 24 hours
Procedure: Substrate specificity of ICM-forming enzyme was investigated using various saccharides as substrates. Substrate solutions were prepared by dissolving maltose, maltotriose, maltotetraose, maltopentaose, maltohexaose, maltoheptaose, neotrehalose, trehalose, kojibiose, nigerose, isomaltose, isomaltotriose, panose, isopanose, maltitol, maltotriitol, α-, β-, or γ-cyclodextrin, amylose, soluble starch, glycogen, pullulan or dextran in water. Each substrate solution was admixed with acetate buffer (pH 6.0) and CaCl2 to give final concentrations of 20 mM and 1 mM, respectively. […] Substrate concentration was set to 2% (w/v) and followed by the enzyme reaction at 40° C. and pH 6.0 for 24 hours. To examine the saccharides in each mixture before and after the reaction, saccharides were separated by silica gel thin-layer chromatography (hereinafter, simply abbreviated as “TLC”) using “KIESELGEL 60”, a TLC aluminum plate (10×20 cm) and a solvent (n-butanol/pyridine/water, volume ratio of 6:4:1) and two-times ascending method. The separated saccharides on the plate were detected by visualizing the spots with sulfate-methanol method. By the above TLC analyses, the enzymatic action and the degree of the reaction of ICM-forming enzyme on each substrate were confirmed.

small intestinal enzymes [4] = test system: small intestinal enzymes
Description: (§1) 43, 23-29 (1990), the digestibility of ICM by salivary α-amylase, artificial gastric juice, pancreas amylase, and small intestinal enzymes were investigated using ICG5, used in Experiment 15. […] In Table 18, the digestion (%) means a value calculated by the formula: Digestion (%)=(The amount of reducing saccharides/The amount of the total saccharides)×100 , in respective reaction described above.

salivary α-amylase = biological target: T1, salivary α-amylase (Homo sapiens, UniProt P0DUB6); assay: Digestibility of ICM by salivary α-amylase; conditions: reducing saccharides/total saccharides x100
T1 sequence (P0DUB6 16-511): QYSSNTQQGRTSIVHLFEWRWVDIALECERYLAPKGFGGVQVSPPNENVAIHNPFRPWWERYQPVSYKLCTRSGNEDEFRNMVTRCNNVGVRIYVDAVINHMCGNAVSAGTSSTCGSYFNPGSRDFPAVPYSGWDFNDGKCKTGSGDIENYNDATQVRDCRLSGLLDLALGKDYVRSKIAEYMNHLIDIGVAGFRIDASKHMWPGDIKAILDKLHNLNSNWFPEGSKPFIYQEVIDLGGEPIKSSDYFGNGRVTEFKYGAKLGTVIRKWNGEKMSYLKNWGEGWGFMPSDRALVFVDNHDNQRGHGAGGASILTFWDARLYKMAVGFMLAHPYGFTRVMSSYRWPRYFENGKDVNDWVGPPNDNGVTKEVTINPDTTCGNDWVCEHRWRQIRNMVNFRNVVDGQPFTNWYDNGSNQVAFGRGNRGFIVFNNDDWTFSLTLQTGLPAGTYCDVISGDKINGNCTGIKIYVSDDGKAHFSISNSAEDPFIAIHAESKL
Description: as §1

pancreas α-amylase = assay: Digestibility of ICM by pancreas α-amylase; conditions: reducing saccharides/total saccharides x100
Description: as §1

[5] = Digestibility of ICM by artificial gastric juice; conditions: reducing saccharides/total saccharides x100
Description: as §1

small intestinal enzymes [6] = assay: Digestibility of ICM by small intestinal enzymes; conditions: reducing saccharides/total saccharides x100
Description: as §1

## OC[C@H]1O[C@@H]2O[C@H]3[C@H](O)[C@@H](O)[C@@H](O[C@H]4[C@H](O)[C@@H](O)[C@@H](O[C@H]5[C@H](O)[C@@H](O)[C@@H](O[C@H]6[C@H](O)[C@@H](O)[C@@H](O[C@H]7[C@H](O)[C@@H](O)[C@@H](O[C@H]1[C@H](O)[C@H]2O)O[C@@H]7CO)O[C@@H]6CO)O[C@@H]5CO)O[C@@H]4CO)O[C@@H]3CO [α-CD, α-cyclodextrin]
[1]; heating time 0 min
  Degree of coloring: 0.02 A480 nm
[1]; heating time 30 min
  Degree of coloring: 0.02 A480 nm
[1]; heating time 60 min
  Degree of coloring: 0.03 A480 nm
[1]; heating time 90 min
  Degree of coloring: 0.02 A480 nm
[2]; heating time 0 min
  Degree of coloring: 0.01 A480 nm
[2]; heating time 30 min
  Degree of coloring: 0.03 A480 nm
[2]; heating time 60 min
  Degree of coloring: 0.04 A480 nm
[2]; heating time 90 min
  Degree of coloring: 0.06 A480 nm
[3]; objective compound: 4-Phenyl 1-propanol (aromatic compound)
  Amount of compound clathrated: 171.5 mg/g-freeze-dried product
[3]; objective compound: Acetic acid (short chain fatty acid)
  Amount of compound clathrated: 15.1 mg/g-freeze-dried product
[3]; objective compound: Benzyl alcohol (aromatic compound)
  Amount of compound clathrated: 165.7 mg/g-freeze-dried product
[3]; objective compound: Butanol (short chain alcohol)
  Amount of compound clathrated: 79.5 mg/g-freeze-dried product
[3]; objective compound: Ethanol (short chain alcohol)
  Amount of compound clathrated: 36.7 mg/g-freeze-dried product
[3]; objective compound: Methanol (short chain alcohol)
  Amount of compound clathrated: 16.7 mg/g-freeze-dried product
[3]; objective compound: Phenethyl alcohol (aromatic compound)
  Amount of compound clathrated: 144.4 mg/g-freeze-dried product
[3]; objective compound: Propanol (short chain alcohol)
  Amount of compound clathrated: 66.8 mg/g-freeze-dried product
[3]; objective compound: Propionic acid (short chain fatty acid)
  Amount of compound clathrated: 16.6 mg/g-freeze-dried product
[3]; objective compound: n-Butyric acid (short chain fatty acid)
  Amount of compound clathrated: 13.2 mg/g-freeze-dried product
[3]; objective compound: n-Valeic acid (short chain fatty acid)
  Amount of compound clathrated: 45.0 mg/g-freeze-dried product
[3]; objective compound: o-Cresol (aromatic compound)
  Amount of compound clathrated: 49.5 mg/g-freeze-dried product
ICM-forming enzyme
  Action: −
Small intestinal enzymes [4]
  Digestion: 0.2%
Salivary α-amylase
  Digestion: 0%
Pancreas α-amylase
  Digestion: 0%

## OC[C@H]1O[C@@H]2O[C@H]3[C@H](O)[C@@H](O)[C@@H](O[C@H]4[C@H](O)[C@@H](O)[C@@H](O[C@H]5[C@H](O)[C@@H](O)[C@@H](O[C@H]6[C@H](O)[C@@H](O)[C@@H](O[C@H]7[C@H](O)[C@@H](O)[C@@H](O[C@H]8[C@H](O)[C@@H](O)[C@@H](O[C@H]9[C@H](O)[C@@H](O)[C@@H](O[C@H]1[C@H](O)[C@H]2O)O[C@@H]9CO)O[C@@H]8CO)O[C@@H]7CO)O[C@@H]6CO)O[C@@H]5CO)O[C@@H]4CO)O[C@@H]3CO [γ-CD, γ-cyclodextrin]
ICM-forming enzyme
  Action: −
Salivary α-amylase
  Digestion: 0.1%
Pancreas α-amylase
  Digestion: 5.4%
[5]
  Digestion: 0%
Small intestinal enzymes [6]
  Digestion: 57.4%

## OC[C@H]1O[C@@H]2O[C@H]3[C@H](O)[C@@H](O)[C@@H](O[C@H]4[C@H](O)[C@@H](O)[C@@H](O[C@H]5[C@H](O)[C@@H](O)[C@@H](O[C@H]6[C@H](O)[C@@H](O)[C@@H](O[C@H]7[C@H](O)[C@@H](O)[C@@H](O[C@H]8[C@H](O)[C@@H](O)[C@@H](O[C@H]1[C@H](O)[C@H]2O)O[C@@H]8CO)O[C@@H]7CO)O[C@@H]6CO)O[C@@H]5CO)O[C@@H]4CO)O[C@@H]3CO [β-CD, β-cyclodextrin]
ICM-forming enzyme
  Action: −
Salivary α-amylase
  Digestion: 0%
Pancreas α-amylase
  Digestion: 0.2%
[5]
  Digestion: 0%
Small intestinal enzymes [6]
  Digestion: 1.1%
